Experimental data published in ChEMBL document CHEMBL4828748, “Design, synthesis, and pharmacological evaluation of sinomenine derivatives on rings A and C: Novel compounds screening for aplastic anemia targeting on cytotoxic T lymphocyte” (Eur J Med Chem, 2021).
pIC50: −log10 of the molar value.

Legend:
[1] = Inhibition of mouse CTLL-2 cells activity at 10 uM incubated for 24 hrs; format: functional
Peritoneal macrophage [2] = test: Inhibition of LPS-induced NO production in C57BL/6J mouse peritoneal macrophages at 10 uM measured after 24 hrs in presence of LPS by Griess reagent based assay relative to control; format: functional
[3] = Cytotoxicity against C57BL/6J mouse peritoneal macrophages assessed as reduction of cell viability at 10 uM incubated for 24 hrs in presence of LPS by MTT assay; format: cell-based, Peritoneal macrophage
[4] = Inhibition of mouse CTLL-2 cells activity incubated for 24 hrs; format: functional, cell-based
Peritoneal macrophage [5] = test: Inhibition of LPS-induced NO production in C57BL/6J mouse peritoneal macrophages at 1 uM measured after 24 hrs in presence of LPS by Griess reagent based assay relative to control; format: functional
[6] = Cytotoxicity against C57BL/6J mouse peritoneal macrophages assessed as reduction of cell viability at 1 uM incubated for 24 hrs in presence of LPS by MTT assay; format: cell-based, Peritoneal macrophage
[7] = Acute toxicity in po dosed Kunming mouse; format: organism-based; settings: in vivo

Row | SMILES | inhibition at 10 µM [1] | inhibition at 10 µM (Peritoneal macrophage [2]) | inhibition at 24 h, 10 µM [3] | pIC50 [4] | inhibition at 1 µM (Peritoneal macrophage [5]) | inhibition at 24 h, 1 µM [6] | LD50 [7]
1 | COc1ccc2c(c1O)[C@@]13CCN(C)[C@@H](C2)[C@H]1C[C@@H](OC)C(=O)C3 | 5.8% | 6.5% | 6.5% | – | – | – | –
2 | CCCCCCCCCCCC(=O)Oc1c(OC)ccc2c1[C@@]13CCN(C)[C@@H](C2)[C@H]1C=C(OC)C(=O)C3 | 98.7% | 42.7% | 4.4% | 5.42 | – | – | –
3 | CCCCCCCCCCCC(=O)Oc1c(OC)cc(C=O)c2c1[C@@]13CCN(C)[C@@H](C2)[C@H]1C=C(OC)C(=O)C3 | 25.2% | 2.2% | 0% | – | – | – | –
4 | C[C@@H]1C[C@H]2[C@@H]3CCC4=CC(=O)C=C[C@]4(C)[C@@]3(F)[C@@H](O)C[C@]2(C)[C@@]1(O)C(=O)CO [DEXAMETHASONE] | – | – | – | – | 62.8% | 17% | –
5 | CCCCCCCCCCCCCCCC(=O)Oc1c(OC)cc(C=O)c2c1[C@@]13CCN(C)[C@@H](C2)[C@H]1C=C(OC)C(=O)C3 | 32.2% | 21% | -1.9% | – | – | – | –
6 | C=CCCCCCCCCC(=O)Oc1c(OC)ccc2c1[C@@]13CCN(C)[C@@H](C2)[C@H]1C=C(OC)C(=O)C3 | 52.8% | 94% | 8.8% | 5.12 | – | – | –
7 | C=CCCCCCCCCC(=O)OCc1cc(OC)c(OC(=O)CCCCCCCCC=C)c2c1C[C@H]1[C@H]3C=C(OC)C(=O)C[C@@]23CCN1C | 33.9% | -0.9% | 9.3% | – | – | – | –
8 | COc1ccc2c(c1OC(=O)c1cccnc1)[C@@]13CCN(C)[C@@H](C2)[C@H]1C[C@@H](OC)C(=O)C3 | 9.1% | 11.2% | 3.1% | – | – | – | –
9 | COC1=C[C@@H]2[C@@H]3Cc4c(C=O)cc(OC)c(OC(C)=O)c4[C@]2(CCN3C)CC1=O | 10.3% | 0.6% | 0.2% | – | – | – | –
10 | CCCCCCCCCCCCCC(=O)OCc1cc(OC)c(OC(=O)CCCCCCCCCCCCC)c2c1C[C@H]1[C@H]3C=C(OC)C(=O)C[C@@]23CCN1C | -0.9% | 10.1% | 2.5% | – | – | – | –
11 | CCCCCCCC/C=C/CCCCCCCCCCCC(=O)Oc1c(OC)ccc2c1[C@@]13CCN(C)[C@@H](C2)[C@H]1C=C(OC)C(=O)C3 | 32.6% | 3.5% | 0.4% | – | – | – | –
12 | COC1=C[C@@H]2[C@@H]3Cc4ccc(OC)c(O)c4[C@]2(CCN3C)CC1=O [SINOMENINE] | 2.8% | 7.5% | 1.3% | – | – | – | 1100 mg/kg
13 | COC1=C[C@@H]2[C@@H]3Cc4c(C=O)cc(OC)c(O)c4[C@]2(CCN3C)CC1=O | 3.5% | 4.2% | 2.5% | – | – | – | –
14 | C/C=C/C=C/C(=O)Oc1c(OC)cc(C=O)c2c1[C@@]13CCN(C)[C@@H](C2)[C@H]1C=C(OC)C(=O)C3 | 14% | 46% | 1.4% | – | – | – | –
15 | COC1=C[C@@H]2[C@@H]3Cc4ccc(OC)c(OC(=O)c5cccnc5)c4[C@]2(CCN3C)CC1=O | 3.2% | 14% | 0.8% | – | – | – | –
16 | CCCCCCCCCCCC(=O)Oc1c(OC)ccc2c1[C@@]13CCN(C)[C@@H](C2)[C@H]1C[C@@H](OC)C(=O)C3 | 96.7% | 5% | 3.1% | 5.36 | – | – | –
17 | CCCCCCCCCCCC(=O)OCc1cc(OC)c(OC(=O)CCCCCCCCCCC)c2c1C[C@H]1[C@H]3C=C(OC)C(=O)C[C@@]23CCN1C | 6.8% | 3.4% | 6.2% | – | – | – | –

Row | SMILES | inhibition at 10 µM [1] | inhibition at 10 µM (Peritoneal macrophage [2]) | inhibition at 24 h, 10 µM [3] | pIC50 [4] | inhibition at 1 µM (Peritoneal macrophage [5]) | inhibition at 24 h, 1 µM [6] | LD50 [7]
18 | C=CCCCCCCCCC(=O)Oc1c(OC)cc(C=O)c2c1[C@@]13CCN(C)[C@@H](C2)[C@H]1C=C(OC)C(=O)C3 | 23.4% | 11.6% | 1.3% | – | – | – | –
19 | CCCCCCCCCCCCCCCC(=O)OCc1cc(OC)c(OC(=O)CCCCCCCCCCCCCCC)c2c1C[C@H]1[C@H]3C=C(OC)C(=O)C[C@@]23CCN1C | 20.5% | -2.4% | 5.3% | – | – | – | –
20 | C/C=C/C[C@@H](C)[C@@H](O)[C@H]1C(=O)N[C@@H](CC)C(=O)N(C)CC(=O)N(C)[C@@H](CC(C)C)C(=O)N[C@@H](C(C)C)C(=O)N(C)[C@@H](CC(C)C)C(=O)N[C@@H](C)C(=O)N[C@H](C)C(=O)N(C)[C@@H](CC(C)C)C(=O)N(C)[C@@H](CC(C)C)C(=O)N(C)[C@@H](C(C)C)C(=O)N1C [CYCLOSPORINE] | 96.8% | – | – | – | – | – | –
21 | CCCCCCCC/C=C/CCCCCCCCCCCC(=O)OCc1cc(OC)c(OC(=O)CCCCCCCCCCC/C=C/CCCCCCCC)c2c1C[C@H]1[C@H]3C=C(OC)C(=O)C[C@@]23CCN1C | 6.7% | 1.1% | 0.2% | – | – | – | –
22 | CCCCCCCCCCCCCC(=O)Oc1c(OC)cc(C=O)c2c1[C@@]13CCN(C)[C@@H](C2)[C@H]1C=C(OC)C(=O)C3 | 90.8% | 33.9% | 0.5% | 5.43 | – | – | –
23 | CCCCCCCCCCCCCC(=O)Oc1c(OC)ccc2c1[C@@]13CCN(C)[C@@H](C2)[C@H]1C[C@@H](OC)C(=O)C3 | 98.3% | 46.2% | 4.6% | 5.17 | – | – | –
24 | C/C=C/C=C/C(=O)OCc1cc(OC)c(OC(=O)/C=C/C=C/C)c2c1C[C@H]1[C@H]3C=C(OC)C(=O)C[C@@]23CCN1C | 6.2% | 90.8% | 6.1% | – | – | – | –
25 | COc1ccc2c(c1OC(C)=O)[C@@]13CCN(C)[C@@H](C2)[C@H]1C[C@@H](OC)C(=O)C3 | 12.5% | 5.6% | 3.2% | – | – | – | –
26 | CCCCCCCCCCCCCCCC(=O)Oc1c(OC)ccc2c1[C@@]13CCN(C)[C@@H](C2)[C@H]1C[C@@H](OC)C(=O)C3 | 45.3% | 93.5% | 1.7% | – | – | – | –
27 | C/C=C/C=C/C(=O)Oc1c(OC)ccc2c1[C@@]13CCN(C)[C@@H](C2)[C@H]1C[C@@H](OC)C(=O)C3 | 1.1% | 40.7% | 5.1% | – | – | – | –
28 | CCCCCCCC/C=C/CCCCCCCCCCCC(=O)Oc1c(OC)cc(C=O)c2c1[C@@]13CCN(C)[C@@H](C2)[C@H]1C=C(OC)C(=O)C3 | 29.6% | 18.6% | 0.5% | – | – | – | –
29 | C/C=C/C=C/C(=O)Oc1c(OC)ccc2c1[C@@]13CCN(C)[C@@H](C2)[C@H]1C=C(OC)C(=O)C3 | 14.3% | 46.9% | 0.3% | – | – | – | –
30 | COC1=C[C@@H]2[C@@H]3Cc4c(C=O)cc(OC)c(OC(=O)/C=C/c5ccccc5)c4[C@]2(CCN3C)CC1=O | 4.7% | 21.6% | 0.6% | – | – | – | –
31 | COC1=C[C@@H]2[C@@H]3Cc4ccc(OC)c(OC(=O)/C=C/c5ccccc5)c4[C@]2(CCN3C)CC1=O | 5.4% | 61.1% | -3.3% | – | – | – | –
32 | COC1=C[C@@H]2[C@@H]3Cc4c(CO)cc(OC)c(O)c4[C@]2(CCN3C)CC1=O | 6.1% | 3.6% | 1.2% | – | – | – | –
33 | CCCCCCCCCCCCCC(=O)Oc1c(OC)ccc2c1[C@@]13CCN(C)[C@@H](C2)[C@H]1C=C(OC)C(=O)C3 | 88.1% | 4.3% | 2.7% | 5.37 | – | – | –
34 | COc1ccc2c(c1OC(=O)/C=C/c1ccccc1)[C@@]13CCN(C)[C@@H](C2)[C@H]1C[C@@H](OC)C(=O)C3 | 11.6% | 57.4% | 4.8% | – | – | – | –
